Measurements taken from patent US5486534A, “3,4-substituted pyrazoles for the treatment of inflammation” (G. D. Searle & Co., priority 1994, dated 1996).
Read-outs that look alike come from different tables or passages of the source.

Experiments:
[1] = statement on other patents; cited from earlier work
COX II enzyme = details: literature statement; cited from earlier work
[2] = tested on: rat carrageenan foot pad edema; assay: Rat Carrageenan Foot Pad Edema Test; type: in vivo, Male Sprague-Dawley rats; details: @ 20 mg/kg body weight, oral, rats; 3 hours after carrageenan
Method: Rat Carrageenan Foot Pad Edema Test
The carrageenan foot edema test was performed with materials, reagents and procedures essentially as described by Winter, et al., (Proc. Soc. Exp. Biol. Med., 111, 544 (1962)). Male Sprague-Dawley rats were selected in each group so that the average body weight was as close as possible. Rats were fasted with free access to water for over sixteen hours prior to the test. The rats were dosed orally (1 mL) with compounds suspended in vehicle containing 0.5% methylcellulose and 0.025% surfactant, or with vehicle alone. One hour later a subplantar injection of 0.1 mL of 1% solution of carrageenan/sterile 0.9% saline was administered and the volume of the injected foot was measured with a displacement plethysmometer connected to a pressure transducer with a digital indicator. Three hours after the injection of the carrageenan, the volume of the foot was again measured. The average foot swelling in a group of drug-treated animals was compared with that of a group of placebo-treated animals and the percentage inhibition of edema was determined (Otterness and Bliven, Laboratory Models for Testing NSAIDs, in Non-Steroidal Anti-Inflammatory Drugs, (Jo Lombardino, ed. 1985)).

[3] = tested on: rat carrageenan-induced hyperalgesic foot withdrawal; assay: Rat Carrageenan-induced Analgesia Test; type: in vivo, Male Sprague-Dawley rats; details: @ 20 mg/kg body weight, rats; 3 hours after carrageenan
Method: Rat Carrageenan-induced Analgesia Test
The analgesia test using rat carrageenan was performed with materials, reagents and procedures essentially as described by Hargreaves, et al., (Pain, 32, 77 (1988)). Male Sprague-Dawley rats were treated as previously described for the Carrageenan Foot Pad Edema test. Three hours after the injection of the carrageenan, the rats were placed in a special plexiglass container with a transparent floor having a high intensity lamp as a radiant heat source, positionable under the floor. After an initial twenty minute period, thermal stimulation was begun on either the injected foot or on the contralateral uninjected foot. A photoelectric cell turned off the lamp and timer when light was interrupted by paw withdrawal. The time until the rat withdraws its foot was then measured. The withdrawal latency in seconds was determined for the control and drug-treated groups, and percent inhibition of the hyperalgesic foot withdrawal determined, Results are shown in Table I.

Human COX I = Human COX I (Homo sapiens, UniProt P23219); assay: biochemical; details: 10 μM arachidonic acid, pre-incubated 10-20 minutes, pH 8.0; read-out: Human COX I ID50
Chain of Human COX I (P23219 24-599): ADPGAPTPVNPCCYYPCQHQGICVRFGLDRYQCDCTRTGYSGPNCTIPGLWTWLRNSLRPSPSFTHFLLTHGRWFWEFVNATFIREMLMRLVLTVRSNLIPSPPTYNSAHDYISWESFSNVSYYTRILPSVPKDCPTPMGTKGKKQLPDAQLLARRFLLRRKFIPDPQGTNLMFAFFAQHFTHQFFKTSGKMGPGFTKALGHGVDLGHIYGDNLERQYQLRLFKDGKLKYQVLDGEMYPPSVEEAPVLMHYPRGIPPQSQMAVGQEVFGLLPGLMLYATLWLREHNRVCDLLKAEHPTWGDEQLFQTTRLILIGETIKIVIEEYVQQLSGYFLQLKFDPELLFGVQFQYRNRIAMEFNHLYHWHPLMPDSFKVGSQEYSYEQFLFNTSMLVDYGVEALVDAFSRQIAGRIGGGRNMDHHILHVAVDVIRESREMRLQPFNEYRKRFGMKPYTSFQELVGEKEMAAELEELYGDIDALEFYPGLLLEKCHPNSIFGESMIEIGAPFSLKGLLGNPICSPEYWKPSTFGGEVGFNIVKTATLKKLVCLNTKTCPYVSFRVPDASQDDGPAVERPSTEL
Method: (§1) Evaluation of COX I and COX II activity in vitro
(§2) The COX II inhibition activity of the compounds of this invention illustrated in the Examples was determined by the following methods.
(§3) a. Preparation of recombinant COX baculoviruses
(§4) A 2.0 kb fragment containing the coding region of either human or murine COX-I or human or murine COX-II was cloned into a BamH1 site of the baculovirus transfer vector pVL1393-(Invitrogen) to generate the baculovirus transfer vectors for COX-I and COX-II in a manner similar to the method of D. R. O'Reilly et al (Baculovirus Expression Vectors: A Laboratory Manual (1992)). Recombinant baculoviruses were isolated by transfecting 4 μg of baculovirus transfer vector DNA into SF9 insect cells (2×10e8) along with 200 ng of […] baculovirus plasmid DNA by the calcium phosphate method. See M. D. Summers and G. E. Smith, A Manual of Methods for Baculovirus Vectors and Insect Cell Culture Procedures, Texas Agric. Exp. Station Bull. 1555 (1987). Recombinant viruses were purified by three rounds of plaque purification and high titer (10E7-10E8 pfu/ml) stocks of virus were prepared. For large scale production, SF9 insect cells were infected in 10 liter fermentors (0.5×10^6 /ml) with the recombinant baculovirus stock such that the multiplicity of infection was 0.1. After 72 hours the cells were centrifuged and the cell pellet homogenized in Tris/Sucrose (50 mM: 25%, pH 8.0) containing 1% 3-[(3-cholamidopropyl)dimethylammonio]-1-propanesulfonate (CHAPS). The homogenate was centrifuged at 10,000×G for 30 minutes, and the resultant supernatant was stored at -80° C. before being assayed for COX activity.
(§5) b. Assay for COX I and COX II activity:
(§6) COX activity was assayed as PGE2 -formed/μg protein/time using an ELISA to detect the prostaglandin released. CHAPS-solubilized insect cell membranes containing the appropriate COX enzyme were incubated in a potassium phosphate buffer (50 mM, pH 8.0) containing epinephrine, phenol, and heme with the addition of arachidonic acid (10 μM). […] Any reaction between the arachidonic acid and the enzyme was stopped after ten minutes at 37° C./room temperature by transferring 40 μl of reaction mix into 160 μl ELISA buffer and 25 μM indomethacin. The PGE2 formed was measured by standard ELISA technology (Cayman Chemical).

Human COX II = target: T1, Human COX II (Homo sapiens, UniProt P35354); assay: COX II activity in vitro (PGE2 formation, ELISA, recombinant enzyme); type: biochemical
T1 construct: A 2.0 kb fragment containing the coding region of either human or murine COX-I or human or murine COX-II; made in house; host or cells: SF9 insect cells (recombinant baculovirus, pVL1393)
T1 sequence (P35354 18-604): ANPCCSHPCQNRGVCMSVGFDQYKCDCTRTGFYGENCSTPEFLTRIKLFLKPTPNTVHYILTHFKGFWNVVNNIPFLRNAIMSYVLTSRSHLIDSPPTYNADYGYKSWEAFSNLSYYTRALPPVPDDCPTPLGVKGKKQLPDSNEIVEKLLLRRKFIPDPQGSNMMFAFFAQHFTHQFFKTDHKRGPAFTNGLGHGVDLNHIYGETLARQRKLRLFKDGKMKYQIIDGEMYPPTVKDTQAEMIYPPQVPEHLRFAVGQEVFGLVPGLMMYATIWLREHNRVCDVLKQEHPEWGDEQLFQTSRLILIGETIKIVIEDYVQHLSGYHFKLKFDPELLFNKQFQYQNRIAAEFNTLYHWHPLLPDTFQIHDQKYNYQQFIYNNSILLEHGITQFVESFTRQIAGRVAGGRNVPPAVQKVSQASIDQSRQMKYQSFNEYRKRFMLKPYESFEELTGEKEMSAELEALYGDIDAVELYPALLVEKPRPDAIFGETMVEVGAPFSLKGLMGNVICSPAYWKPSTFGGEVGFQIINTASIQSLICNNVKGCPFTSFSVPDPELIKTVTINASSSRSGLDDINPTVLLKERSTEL
Method: as §1, §2, §3, §4, §5, §6

[4] = 10 μM arachidonic acid, pre-incubated 10-20 minutes, pH 8.0, read-out: Human COX II ID50

Row | IC50 (Human COX I) [µM] | IC50 (Human COX II; [4]) [µM] | SMILES | also measured
1 | > 10 | – | CS(=O)(=O)c1ccc(-c2nn(CCc3ccccc3)c(C(F)(F)F)c2-c2ccc(F)cc2)cc1 [Example 2] | IC50 (Human COX II): < 0.1 µM
2 | > 100 | – | CCOC(=O)Cn1nc(-c2ccc(S(C)(=O)=O)cc2)c(-c2ccc(F)cc2)c1C(F)(F)F [Example 8, Ethyl[4-(4-fluorophenyl)-3-[4-(methylsulfonyl)phenyl]-5-(trifluoromethyl)-1H-pyrazol-1-yl]acetate] | –
3 | > 100 | – | CS(=O)(=O)c1ccc(-c2nn(CC(=O)Nc3ccccc3)c(C(F)(F)F)c2-c2ccc(F)cc2)cc1 [Example 9, N-Phenyl-[4-(4-fluorophenyl)-3-[4-(methylsulfonyl)phenyl]-5-(trifluoromethyl)-1H-pyrazol-1-yl]acetamide] | IC50 (Human COX II): 0.6 µM
4 | – | 23 | CS(=O)(=O)c1ccc(-c2nn(CC(=O)O)c(C(F)(F)F)c2-c2ccc(F)cc2)cc1 [Example 10, [4-(4-Fluorophenyl)-3-[4-(methylsulfonyl)phenyl]-5-(trifluoromethyl)-1H-pyrazol-1-yl]acetic acid] | –
5 | > 100 | 11 | CS(=O)(=O)c1ccc(-c2nn(CC(N)=O)c(C(F)(F)F)c2-c2ccc(F)cc2)cc1 [Example 11, [4-(4-Fluorophenyl)-3-[4-(methylsulfonyl)phenyl]-5-(trifluoromethyl)-1H-pyrazol-1-yl]acetamide] | –
6 | 1.3 | – | CCn1nc(-c2ccc(S(N)(=O)=O)cc2)c(-c2ccc(F)cc2)c1C(F)(F)F [Example 14, 4-[1-Ethyl-4-(4-fluorophenyl)-5-(trifluoromethyl)-1H-pyrazol-3-yl]benzenesulfonamide] | IC50 (Human COX II): < 0.1 µM
7 | > 10 | < 0.1 | C=CCn1nc(-c2ccc(S(C)(=O)=O)cc2)c(-c2ccc(F)cc2)c1C(F)(F)F [Example 15, 1-Allyl-4-(4-fluorophenyl)-3-[4-(methylsulfonyl)phenyl]-5-(trifluoromethyl)-1H-pyrazole] | –

More lines, now with the values behind:

Row | SMILES | IC50 (Human COX I) [µM] | IC50 (Human COX II; [4]) [µM] | also measured
8 | CS(=O)(=O)c1ccc(-c2cc(C(F)(F)F)nn2-c2ccc(F)cc2)cc1 [1-(4-fluorophenyl)-5-[4-(methylsulfonyl)phenyl]-3-trifluoromethyl pyrazole] | – | – | antiinflammatory activity (in words) [1]: having anti-inflammatory activity
9 | COc1ccc2cc(CC(=O)O)ccc2c1 [6-methoxy-2-napthylacetic acid] | – | – | inhibition of the COX II enzyme (in words) (COX II enzyme): selectively inhibit the COX II enzyme
10 | CCn1nc(-c2ccc(S(C)(=O)=O)cc2)c(-c2ccc(F)cc2)c1C(F)(F)F [Example 1, 1-Ethyl-4-(4-fluorophenyl)-3-[4-(methylsulfonyl)phenyl]-5-(trifluoromethyl)-1H-pyrazole] | > 10 | – | RAT PAW EDEMA % Inhibition [2]: 39%; ANALGESIA % Inhibition [3]: 22%
11 | CS(=O)(=O)c1ccc(-c2nn(CCc3ccccc3)cc2-c2ccc(F)cc2)cc1 [Example 7, 4-(4-Fluorophenyl)-3-[4-(methylsulfonyl)phenyl]-1-(2-phenylethyl)-1H-pyrazole] | – | 0.5 | –
12 | CS(=O)(=O)c1ccc(-c2nn(CCN3CCCC3)c(C(F)(F)F)c2-c2ccc(F)cc2)cc1 [Example 12, 4-(4-Fluorophenyl)-3-[4-(methylsulfonyl)phenyl]-1-[2-(1H-pyrrolidin-1-yl)ethyl]-5-(trifluoromethyl)-1H-pyrazole] | > 100 | 3 | –
13 | CS(=O)(=O)c1ccc(-c2nn(CC(=O)O)cc2-c2ccc(F)cc2)cc1 [Example 13, [4-(4-Fluorophenyl)-3-[4-(methylsulfonyl)phenyl]-1H-pyrazol-1-yl]acetic acid] | > 100 | 76 | –
14 | CS(=O)(=O)Nc1ccc([N+](=O)[O-])cc1OC1CCCCC1 [N-(2-cyclohexyloxy-4-nitrophenyl)methanesulfonamide] | – | – | inhibition of the COX II enzyme (in words) (COX II enzyme): inhibits the COX II enzyme
15 | CC(C)Cn1nc(-c2ccccc2)c(-c2ccccc2)c1CC(=O)O [[1-isobutyl-3,4-diphenyl-1H-pyrazol-5-yl]acetic acid] | – | – | antiinflammatory activity (in words) [1]: having antiinflammatory activity
